Results reported in PubChem BioAssay AID1259407 (Chemical Carcinogenesis Research Information System (CCRIS), 2018).
Calls of active or inactive are those of the source. The rule behind the calls is not given here.

System: CCRIS mutagenicity, Ames/micronucleus/aberration tests
Assay: CCRIS mutagenicity studies

Measured: mutagenic call

CC(C)O
inactive: Test System: AMES SALMONELLA TYPHIMURIUM, Strain/Indicator: TA97, Metabolic Activation: HAMSTER, LIVER, S-9, AROCLOR 1254 (10 OR 30%), Method: PREINCUBATION inactive; negative | Test System: AMES SALMONELLA TYPHIMURIUM, Strain/Indicator: TA97, Metabolic Activation: NONE, Method: PREINCUBATION inactive; negative | Test System: AMES SALMONELLA TYPHIMURIUM, Strain/Indicator: TA97, Metabolic Activation: RAT, LIVER, S-9, AROCLOR 1254 (10 OR 30%), Method: PREINCUBATION inactive; negative | Test System: AMES SALMONELLA TYPHIMURIUM, Strain/Indicator: TA98, Metabolic Activation: HAMSTER, LIVER, S-9, AROCLOR 1254 (10 OR 30%), Method: PREINCUBATION inactive; negative | Test System: AMES SALMONELLA TYPHIMURIUM, Strain/Indicator: TA98, Metabolic Activation: NONE, Method: PREINCUBATION inactive; negative | Test System: AMES SALMONELLA TYPHIMURIUM, Strain/Indicator: TA98, Metabolic Activation: RAT, LIVER, S-9, AROCLOR 1254 (10 OR 30%), Method: PREINCUBATION inactive; negative | Test System: AMES SALMONELLA TYPHIMURIUM, Strain/Indicator: TA98, Metabolic Activation: RAT, LIVER, S-9, KC 500, Method: PREINCUBATION inactive; negative | Test System: AMES SALMONELLA TYPHIMURIUM, Strain/Indicator: TA98, Metabolic Activation: RAT, LIVER, S-9, PHENOBARBITAL AND BETA-NAPHTHOFLAVONE, Method: PREINCUBATION inactive; negative | Test System: AMES SALMONELLA TYPHIMURIUM, Strain/Indicator: TA100, Metabolic Activation: HAMSTER, LIVER, S-9, AROCLOR 1254 (10 OR 30%), Method: PREINCUBATION inactive; negative | Test System: AMES SALMONELLA TYPHIMURIUM, Strain/Indicator: TA100, Metabolic Activation: NONE, Method: PREINCUBATION inactive; negative | Test System: AMES SALMONELLA TYPHIMURIUM, Strain/Indicator: TA100, Metabolic Activation: RAT, LIVER, S-9, AROCLOR 1254 (10 OR 30%), Method: PREINCUBATION inactive; negative | Test System: AMES SALMONELLA TYPHIMURIUM, Strain/Indicator: TA100, Metabolic Activation: RAT, LIVER, S-9, KC 500, Method: PREINCUBATION inactive; negative | Test System: AMES SALMONELLA TYPHIMURIUM, Strain/Indicator: TA100, Metabolic Activation: RAT, LIVER, S-9, PHENOBARBITAL AND BETA-NAPHTHOFLAVONE, Method: PREINCUBATION inactive; negative | Test System: AMES SALMONELLA TYPHIMURIUM, Strain/Indicator: TA102, Metabolic Activation: NONE, Method: PREINCUBATION inactive; negative | Test System: AMES SALMONELLA TYPHIMURIUM, Strain/Indicator: TA102, Metabolic Activation: RAT, LIVER, S-9, PHENOBARBITAL AND BETA-NAPHTHOFLAVONE, Method: PREINCUBATION inactive; negative | Test System: AMES SALMONELLA TYPHIMURIUM, Strain/Indicator: TA104, Metabolic Activation: NONE, Method: PREINCUBATION inactive; negative | Test System: AMES SALMONELLA TYPHIMURIUM, Strain/Indicator: TA104, Metabolic Activation: RAT, LIVER, S-9, PHENOBARBITAL AND BETA-NAPHTHOFLAVONE, Method: PREINCUBATION inactive; negative | Test System: AMES SALMONELLA TYPHIMURIUM, Strain/Indicator: TA1535, Metabolic Activation: HAMSTER, LIVER, S-9, AROCLOR 1254 (10 OR 30%), Method: PREINCUBATION inactive; negative | Test System: AMES SALMONELLA TYPHIMURIUM, Strain/Indicator: TA1535, Metabolic Activation: NONE, Method: PREINCUBATION inactive; negative | Test System: AMES SALMONELLA TYPHIMURIUM, Strain/Indicator: TA1535, Metabolic Activation: RAT, LIVER, S-9, AROCLOR 1254 (10 OR 30%), Method: PREINCUBATION inactive; negative | Test System: AMES SALMONELLA TYPHIMURIUM, Strain/Indicator: TA1535, Metabolic Activation: RAT, LIVER, S-9, KC 500, Method: PREINCUBATION inactive; negative | Test System: AMES SALMONELLA TYPHIMURIUM, Strain/Indicator: TA1535, Metabolic Activation: RAT, LIVER, S-9, PHENOBARBITAL AND BETA-NAPHTHOFLAVONE, Method: PREINCUBATION inactive; negative | Test System: AMES SALMONELLA TYPHIMURIUM, Strain/Indicator: TA1537, Metabolic Activation: HAMSTER, LIVER, S-9, AROCLOR 1254 (30%), Method: PREINCUBATION inactive; negative | Test System: AMES SALMONELLA TYPHIMURIUM, Strain/Indicator: TA1537, Metabolic Activation: NONE, Method: PREINCUBATION inactive; negative | Test System: AMES SALMONELLA TYPHIMURIUM, Strain/Indicator: TA1537, Metabolic Activation: RAT, LIVER, S-9, AROCLOR 1254 (30%), Method: PREINCUBATION inactive; negative | Test System: AMES SALMONELLA TYPHIMURIUM, Strain/Indicator: TA1537, Metabolic Activation: RAT, LIVER, S-9, KC 500, Method: PREINCUBATION inactive; negative | Test System: AMES SALMONELLA TYPHIMURIUM, Strain/Indicator: TA1537, Metabolic Activation: RAT, LIVER, S-9, PHENOBARBITAL AND BETA-NAPHTHOFLAVONE, Method: PREINCUBATION inactive; negative | Test System: AMES SALMONELLA TYPHIMURIUM, Strain/Indicator: TA1538, Metabolic Activation: NONE, Method: PREINCUBATION inactive; negative | Test System: AMES SALMONELLA TYPHIMURIUM, Strain/Indicator: TA1538, Metabolic Activation: RAT, LIVER, S-9, KC 500, Method: PREINCUBATION inactive; negative | Test System: CHINESE HAMSTER OVARY, Strain/Indicator: CHO-K1-BH4 (HGPRT), Metabolic Activation: NONE inactive; negative | Test System: CHINESE HAMSTER OVARY, Strain/Indicator: CHO-K1-BH4 (HGPRT), Metabolic Activation: RAT, LIVER, S-9, AROCLOR 1254 inactive; negative | Test System: E. COLI, Strain/Indicator: WP2UVRA/PKM101, Metabolic Activation: NONE, Method: PREINCUBATION inactive; negative | Test System: E. COLI, Strain/Indicator: WP2UVRA/PKM101, Metabolic Activation: RAT, LIVER, S-9, PHENOBARBITAL AND BETA-NAPHTHOFLAVONE, Method: PREINCUBATION inactive; negative | Test System: E. COLI, Strain/Indicator: WP2 UVRA, Metabolic Activation: NONE, Method: PREINCUBATION inactive; negative | Test System: E. COLI, Strain/Indicator: WP2UVRA, Metabolic Activation: NONE, Method: PREINCUBATION inactive; negative | Test System: E. COLI, Strain/Indicator: WP2 UVRA, Metabolic Activation: RAT, LIVER, S-9, KC 500, Method: PREINCUBATION inactive; negative | Test System: E. COLI, Strain/Indicator: WP2UVRA, Metabolic Activation: RAT, LIVER, S-9, PHENOBARBITAL AND BETA-NAPHTHOFLAVONE, Method: PREINCUBATION inactive; negative

Cc1cc2c3ccccc3cc3ccc4cccc1c4c32
active: Test System: AMES SALMONELLA TYPHIMURIUM, Strain/Indicator: TA100, Metabolic Activation: RAT, INTACT HEPATOCYTES, AROCLOR 1254, Method: PREINCUBATION active; positive | Test System: AMES SALMONELLA TYPHIMURIUM, Strain/Indicator: TA100, Metabolic Activation: RAT, NADPH-FORTIFIED HOMOGENIZED HEPATOCYTES, AROCLOR 1254, Method: PREINCUBATION active; positive

CC[C@H](c1ccc(O)cc1)[C@@H](CC)c1ccc(O)cc1
inactive: Test System: AMES SALMONELLA TYPHIMURIUM, Strain/Indicator: TA98, Metabolic Activation: NONE, Method: STANDARD PLATE inactive; negative | Test System: AMES SALMONELLA TYPHIMURIUM, Strain/Indicator: TA98, Metabolic Activation: RAT, LIVER, S-9, Method: STANDARD PLATE inactive; negative | Test System: AMES SALMONELLA TYPHIMURIUM, Strain/Indicator: TA100, Metabolic Activation: NONE, Method: STANDARD PLATE inactive; negative | Test System: AMES SALMONELLA TYPHIMURIUM, Strain/Indicator: TA100, Metabolic Activation: RAT, LIVER, S-9, Method: STANDARD PLATE inactive; negative | Test System: AMES SALMONELLA TYPHIMURIUM, Strain/Indicator: TA1535, Metabolic Activation: NONE, Method: STANDARD PLATE inactive; negative; toxicity at 50 ug/plate | Test System: AMES SALMONELLA TYPHIMURIUM, Strain/Indicator: TA1535, Metabolic Activation: RAT, LIVER, S-9, Method: STANDARD PLATE inactive; negative; toxicity at 100 ug/plate | Test System: AMES SALMONELLA TYPHIMURIUM, Strain/Indicator: TA1537, Metabolic Activation: NONE, Method: STANDARD PLATE inactive; negative; toxicity at 100 ug/plate | Test System: AMES SALMONELLA TYPHIMURIUM, Strain/Indicator: TA1537, Metabolic Activation: RAT, LIVER, S-9, Method: STANDARD PLATE inactive; negative | Test System: AMES SALMONELLA TYPHIMURIUM, Strain/Indicator: TA1538, Metabolic Activation: NONE, Method: STANDARD PLATE inactive; negative | Test System: AMES SALMONELLA TYPHIMURIUM, Strain/Indicator: TA1538, Metabolic Activation: RAT, LIVER, S-9, Method: STANDARD PLATE inactive; negative; toxicity at 100 ug/plate | Test System: UDS RAT HEPATOCYTES, Strain/Indicator: THY INCORP (18-20 HR), Metabolic Activation: NONE, Method: LIQUID SCINTILLATION COUNTING inactive; negative
active: End Point: IN VITRO CHROMOSOMAL ABERRATIONS, Test System: CHINESE HAMSTER CELL DON (22;XY), Metabolic Activation: NONE active; positive (ploidy changes)
